Results from patent US12441722B2, “Therapeutic agents and methods of treatment” (University of Florida Research Foundation, Incorporated, priority 2020, dated 2025).

Legend:
MOLT4 cells = experiment: Protein degradation assay in MOLT4 cells (western blot); type: cell-based; details: MOLT4 cells incubated with various concentrations; the FIGURE
Description: MOLT4 cells and human platelets can be incubated with increasing concentrations of test compounds for 16 h. The cells can be harvested and lysed in RIPA lysis buffer supplemented with protease and phosphatase inhibitor cocktails. An equal amount of protein (20 μg/lane) can be resolved on a pre-cast 4-20% SDS-PAGE gel. Proteins can be subsequently transferred to NOVEX PVDF membranes by electrophoresis. The membranes can be blocked in blocking buffer (5% non-fat dry milk in TBS-T), and can be incubated with primary antibodies (at optimized concentrations) overnight at 4° C. After washing in TBS-T, the membranes can be incubated with an appropriate HRP-conjugated secondary antibody for 1 h at room temperature. After extensive washing, the proteins of interest can be detected with ECL western blotting detection reagents and recorded with autoradiography (Pierce Biotech, Rockford, IL, USA). The primary antibodies for Bcl-xL (Cat #2762), Bcl-2 (Cat #2872), Mcl-1 (Cat #5453) and β-actin (Cat #4970) can be purchased from Cell Signaling technology. The relative band intensity can be measured using ImageJ software and normalized to b-actin. The DC50 (concentration with 50% degradation) can be calculated using GraphPad Prism.

MOLT-4 = experiment: Cell viability assay (tetrazolium-based MTS) in MOLT4 cells; details: 48 h incubation
Description: Cancer cells from acute lymphoblastic leukemia (MOLT4) were incubated with increasing concentrations of compounds of Examples 1-9 for 48 h. Cell viability was measured by tetrazolium-based MTS assay. 5×10^4 to 1×10^5 suspension cells or 3×10^3 to 5×10^3 adherent cells were seeded and treated in 96-well plates for 48 h. The EC50 values of individual agents were calculated with GraphPad Prism.

Compound	protein degradation (western blot) (MOLT4 cells)	EC50 (MOLT-4; Homo sapiens, MOLT-4, MOLT4 acute lymphoblastic leukemia cells) [nM]	EC50 (MOLT-4; MOLT4 acute lymphoblastic leukemia cells) [nM]
Cc1c(-c2ccc(N3CCc4cccc(C(=O)Nc5nc6ccccc6s5)c4C3)nc2C(=O)NCCOCCOCCOCCNc2cccc3c2C(=O)N(C2CCC(=O)NC2=O)C3=O)cnn1CC12CC3CC(CC(C3)C1)C2 (stereo not drawn) [degrader #8, 2-(5-(1-(adamantan-1-ylmethyl)-5-methyl-1H-pyrazol-4-yl)-6-((2-(2-(2-(2-((2-(2,6-dioxopiperidin-3-yl)-1,3-dioxoisoindolin-4-yl)amino)ethoxy)ethoxy)ethoxy)ethyl)carbamoyl)pyridin-2-yl)-N-(benzo[d]thiazol-2-yl)-1,2,3,4-tetrahydroisoquinoline-8-carboxamide]	protein degradation	< 10	–
Cc1ncsc1-c1ccc([C@H](C)NC(=O)[C@@H]2C[C@@H](O)CN2C(=O)[C@@H](NC(=O)CCCCCCNC(=O)C23CC4CC(CC(Cn5ncc(-c6ccc(N7CCc8cccc(C(=O)Nc9nc%10ccccc%10s9)c8C7)nc6C(=O)O)c5C)(C4)C2)C3)C(C)(C)C)cc1 [degrader #43, 6-(8-(benzo[d]thiazol-2-ylcarbamoyl)-3,4-dihydroisoquinolin-2(1H)-yl)-3-(1-(((1S,3r)-3-((7-(((S)-1-((2S,4R)-4-hydroxy-2-(((S)-1-(4-(4-methylthiazol-5-yl)phenyl)ethyl)carbamoyl)pyrrolidin-1-yl)-3,3-dimethyl-1-oxobutan-2-yl)amino)-7-oxoheptyl)carbamoyl)adamantan-1-yl)methyl)-5-methyl-1H-pyrazol-4-yl)picolinic acid]	–	–	100 to 1000
